Test systems include DU-145 prostate; RXF 393 renal; UO-31 renal; HCC-2998 colon; UACC-62 melanoma; HOP-62 NSCLC; HT29 colon; T-47D breast; K-562 leukemia; SNB-19 CNS; NCI/ADR-RES ovarian; SK-MEL-2 melanoma.
What all share (test): DTP human tumour cell line panel, 48 h

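Five concentrations, 48 hours, 96-well plates. At the TGI there is no net growth.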 A value given as a limit tells only on which side of the number the result lay.

As to `CC1(C)CCC[C@@]2(C)C1CC[C@@]1(CO1)[C@@H]2/C=C\C(C=O)CC=O` (some centres not stated), the TGI in the test with DU-145 prostate, in the test on RXF 393 renal, in the test with UO-31 renal, in the test on HCC-2998 colon, with UACC-62 melanoma and in the test with HOP-62 NSCLC was > 100 µM each time. The total growth inhibition concentration (TGI) with HT29 colon was > 100 µM; in the test with T-47D breast it was > 100 µM; in the test on K-562 leukemia, > 69.5 µM; with SNB-19 CNS, > 100 µM; in the test on NCI/ADR-RES ovarian, > 100 µM; in the test with SK-MEL-2 melanoma it was > 100 µM.
As to `O=C(O)CCC(NC(=O)c1ccc(CNc2nc3cc(C(F)(F)F)ccc3nc2C(=O)O)cc1)C(=O)O` (configuration not stated), the total growth inhibition concentration (TGI) with DU-145 prostate, with RXF 393 renal, in the test on UO-31 renal, in the test with HCC-2998 colon, in the test on UACC-62 melanoma and in the test on HOP-62 NSCLC was > 100 µM in each case. Moreover, the TGI with HT29 colon, with T-47D breast, in the test with K-562 leukemia, in the test on SNB-19 CNS, with NCI/ADR-RES ovarian and in the test with SK-MEL-2 melanoma was > 100 µM throughout.
Turning to `COc1ccc(C2=NN(C(=O)c3ccc(Cl)cc3)C(O)(c3cc(F)c(Cl)cc3Cl)C2)cc1` (configuration not stated), the TGI was > 100 µM with DU-145 prostate; > 100 µM in the test on RXF 393 renal; 44.4 µM in the test on UO-31 renal; > 100 µM with HCC-2998 colon; > 100 µM in the test on UACC-62 melanoma; > 100 µM with HOP-62 NSCLC. The TGI in the test with HT29 colon, with T-47D breast, with K-562 leukemia, in the test with SNB-19 CNS, with NCI/ADR-RES ovarian and in the test with SK-MEL-2 melanoma was > 100 µM each time.
With `N#CC(C#N)=Cn1c(=S)[nH]c2ccc([N+](=O)[O-])cc21`, the TGI with DU-145 prostate, with RXF 393 renal, in the test on UO-31 renal, in the test with HCC-2998 colon, in the test with UACC-62 melanoma and in the test on HOP-62 NSCLC was > 100 µM in each case. Further, the TGI in the test with HT29 colon, in the test on T-47D breast, in the test on K-562 leukemia, with SNB-19 CNS, in the test on NCI/ADR-RES ovarian and with SK-MEL-2 melanoma was > 100 µM each time.
For the compound `Cc1ccc(CN2CCN(Cc3ccc(C)o3)C(C)C2)o1` (configuration not stated), the TGI in the test with DU-145 prostate, with RXF 393 renal, with UO-31 renal, with HCC-2998 colon, in the test with UACC-62 melanoma and in the test on HOP-62 NSCLC was > 100 µM each time. Besides, the TGI in the test with HT29 colon, in the test on T-47D breast, in the test on K-562 leukemia, in the test on SNB-19 CNS, with NCI/ADR-RES ovarian and in the test on SK-MEL-2 melanoma was > 100 µM in each case.
Turning to `Cc1ccc(S(=O)(=O)NNC(=O)Nc2ccc([N+](=O)[O-])cc2)cc1`, the TGI with DU-145 prostate was > 100 µM; in the test on RXF 393 renal, > 100 µM; in the test with UO-31 renal it was > 100 µM; in the test with HCC-2998 colon it was > 100 µM; in the test with UACC-62 melanoma, 98 µM; with HOP-62 NSCLC, 95.4 µM. Besides, the TGI in the test on HT29 colon is > 100 µM; with T-47D breast it was 28.9 µM; in the test on K-562 leukemia, > 100 µM; in the test with SNB-19 CNS it was > 100 µM; with NCI/ADR-RES ovarian, > 100 µM; in the test on SK-MEL-2 melanoma, > 100 µM.
`C[C@H]1S[C@H](c2c(F)cccc2F)n2c1nc1ccccc12`: the TGI in the test on DU-145 prostate, in the test with RXF 393 renal, in the test with UO-31 renal, in the test on HCC-2998 colon, in the test with UACC-62 melanoma and with HOP-62 NSCLC was > 100 µM each time. For the same compound, the TGI in the test on HT29 colon, with T-47D breast, in the test on K-562 leukemia, in the test with SNB-19 CNS, with NCI/ADR-RES ovarian and in the test on SK-MEL-2 melanoma was > 100 µM each time.
On to `CCOC(=O)c1csc(-c2cn(C)c3c2C(=O)C(OC)=CC3=O)n1`, for which the TGI with DU-145 prostate was 91.3 µM; in the test with RXF 393 renal, 71.8 µM; in the test on UO-31 renal, > 100 µM; in the test on HCC-2998 colon it was > 100 µM; in the test on UACC-62 melanoma, > 59 µM; with HOP-62 NSCLC, 74 µM. The total growth inhibition concentration (TGI) is > 100 µM in the test with HT29 colon; > 100 µM in the test with T-47D breast; > 100 µM in the test with K-562 leukemia; > 100 µM in the test on SNB-19 CNS; > 100 µM in the test with NCI/ADR-RES ovarian; > 78 µM in the test with SK-MEL-2 melanoma.
Consider `COC(=O)/C(C#N)=C/c1cc(C(C)(C)C)c(O)c(C(C)(C)C)c1`, for which the TGI was > 100 µM with DU-145 prostate; 14.8 µM in the test on RXF 393 renal; 10 µM with UO-31 renal; 7.8 µM in the test on HCC-2998 colon; 15.1 µM with UACC-62 melanoma; 11.3 µM in the test with HOP-62 NSCLC. The TGI in the test on HT29 colon is 12.1 µM; in the test with T-47D breast it was 19.4 µM; in the test with K-562 leukemia, > 47.8 µM; with SNB-19 CNS, > 100 µM; in the test with NCI/ADR-RES ovarian, 9.65 µM; in the test with SK-MEL-2 melanoma it was 4.92 µM.
`O=c1c2ccccc2nc(N/N=C/c2ccc(Cl)cc2)n1-c1ccccc1`: the total growth inhibition concentration (TGI) in the test with DU-145 prostate is > 100 µM; with RXF 393 renal, > 100 µM; in the test with UO-31 renal, 88 µM; with HCC-2998 colon, > 100 µM; in the test on UACC-62 melanoma it was > 100 µM; with HOP-62 NSCLC, > 100 µM. Besides, the TGI in the test with HT29 colon is > 100 µM; with T-47D breast it was > 100 µM; with K-562 leukemia, > 100 µM; in the test with SNB-19 CNS, > 100 µM; with NCI/ADR-RES ovarian, > 100 µM; in the test on SK-MEL-2 melanoma, 77.2 µM.
As for `COc1cc(OC)nc(-n2c(N)c(C(=O)O)c3ccc([N+](=O)[O-])cc3c2=O)n1`, the TGI with DU-145 prostate, with RXF 393 renal, with UO-31 renal, in the test on HCC-2998 colon, in the test on UACC-62 melanoma and with HOP-62 NSCLC was > 100 µM in each case. The TGI in the test on HT29 colon, in the test with T-47D breast, in the test on K-562 leukemia, in the test on SNB-19 CNS, in the test on NCI/ADR-RES ovarian and with SK-MEL-2 melanoma was > 100 µM each time.

(Values after PubChem BioAssay (NCI).)
